Experiments:
[1] = biological target: T1, Inhibitor of nuclear factor kappa-B kinase subunit beta (Homo sapiens) (UniProt O14920); test: Inhibition of human recombinant IKKb at 500 nM in presence of ATP by radiometric assay relative to control
T1 sequence (whole entry): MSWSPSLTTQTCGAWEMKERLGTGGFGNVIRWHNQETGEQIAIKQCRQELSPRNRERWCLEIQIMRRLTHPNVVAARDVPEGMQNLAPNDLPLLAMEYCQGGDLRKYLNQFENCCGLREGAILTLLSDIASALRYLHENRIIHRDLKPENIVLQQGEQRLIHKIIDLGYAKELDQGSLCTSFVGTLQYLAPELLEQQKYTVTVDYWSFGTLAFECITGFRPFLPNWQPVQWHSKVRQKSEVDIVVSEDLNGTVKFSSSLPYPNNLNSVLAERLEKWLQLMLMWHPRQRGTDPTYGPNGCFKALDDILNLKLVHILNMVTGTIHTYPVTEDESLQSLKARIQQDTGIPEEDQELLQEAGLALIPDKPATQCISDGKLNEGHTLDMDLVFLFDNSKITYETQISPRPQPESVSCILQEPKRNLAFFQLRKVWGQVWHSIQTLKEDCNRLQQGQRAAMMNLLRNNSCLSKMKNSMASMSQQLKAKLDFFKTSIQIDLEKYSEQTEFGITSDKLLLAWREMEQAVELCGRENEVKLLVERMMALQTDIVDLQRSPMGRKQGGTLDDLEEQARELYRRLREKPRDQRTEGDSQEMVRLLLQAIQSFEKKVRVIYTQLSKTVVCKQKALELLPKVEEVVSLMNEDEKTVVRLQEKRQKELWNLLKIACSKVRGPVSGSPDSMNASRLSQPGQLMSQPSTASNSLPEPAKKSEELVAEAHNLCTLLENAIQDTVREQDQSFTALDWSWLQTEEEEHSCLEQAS

[2] = biological target: T2, Serine/threonine-protein kinase ULK2 (Homo sapiens) (UniProt Q8IYT8); test: Inhibition of human recombinant ULK2 at 500 nM in presence of ATP by radiometric assay relative to control
T2 sequence (whole entry): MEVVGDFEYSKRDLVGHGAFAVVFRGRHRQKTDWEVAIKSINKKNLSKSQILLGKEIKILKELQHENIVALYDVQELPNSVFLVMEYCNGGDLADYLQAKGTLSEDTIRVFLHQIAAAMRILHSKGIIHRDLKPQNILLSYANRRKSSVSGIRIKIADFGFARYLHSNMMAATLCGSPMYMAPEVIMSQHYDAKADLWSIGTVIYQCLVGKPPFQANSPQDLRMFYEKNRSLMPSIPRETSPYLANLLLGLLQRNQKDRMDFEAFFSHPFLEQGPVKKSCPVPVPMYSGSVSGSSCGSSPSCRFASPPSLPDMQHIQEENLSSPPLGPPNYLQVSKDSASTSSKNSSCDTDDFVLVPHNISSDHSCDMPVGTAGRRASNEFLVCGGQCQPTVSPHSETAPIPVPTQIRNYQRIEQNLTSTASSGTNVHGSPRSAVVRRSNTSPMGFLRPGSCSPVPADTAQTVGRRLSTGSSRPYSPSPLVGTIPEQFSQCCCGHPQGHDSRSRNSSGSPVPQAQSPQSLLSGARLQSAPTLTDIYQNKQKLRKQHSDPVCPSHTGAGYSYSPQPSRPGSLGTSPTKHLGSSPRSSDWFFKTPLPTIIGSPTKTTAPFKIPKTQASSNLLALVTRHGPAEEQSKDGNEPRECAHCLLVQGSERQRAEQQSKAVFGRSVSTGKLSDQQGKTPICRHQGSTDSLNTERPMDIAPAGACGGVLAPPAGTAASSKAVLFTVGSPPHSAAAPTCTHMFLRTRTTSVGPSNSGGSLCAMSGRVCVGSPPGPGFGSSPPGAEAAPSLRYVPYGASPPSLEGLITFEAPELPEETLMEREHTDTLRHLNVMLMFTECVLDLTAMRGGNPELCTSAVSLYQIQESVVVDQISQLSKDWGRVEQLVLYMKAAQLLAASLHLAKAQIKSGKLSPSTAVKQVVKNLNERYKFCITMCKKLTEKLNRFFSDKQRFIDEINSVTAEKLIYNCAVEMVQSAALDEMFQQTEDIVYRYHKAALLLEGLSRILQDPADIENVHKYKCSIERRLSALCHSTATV

[3] = biological target: Proto-oncogene tyrosine-protein kinase ROS (Homo sapiens) (UniProt P08922); test: Inhibition of human recombinant ROS at 15 nM in presence of ATP by radiometric assay relative to control
[4] = biological target: Protein kinase C beta type (Homo sapiens) (UniProt P05771); test: Inhibition of human recombinant PKCb at 15 nM related to control ULK1
[5] = biological target: T3, Tyrosine-protein kinase receptor TYRO3 (Homo sapiens) (UniProt Q06418); test: Inhibition of human recombinant TYRO3 at 15 nM related to control ULK1
T3 sequence (whole entry): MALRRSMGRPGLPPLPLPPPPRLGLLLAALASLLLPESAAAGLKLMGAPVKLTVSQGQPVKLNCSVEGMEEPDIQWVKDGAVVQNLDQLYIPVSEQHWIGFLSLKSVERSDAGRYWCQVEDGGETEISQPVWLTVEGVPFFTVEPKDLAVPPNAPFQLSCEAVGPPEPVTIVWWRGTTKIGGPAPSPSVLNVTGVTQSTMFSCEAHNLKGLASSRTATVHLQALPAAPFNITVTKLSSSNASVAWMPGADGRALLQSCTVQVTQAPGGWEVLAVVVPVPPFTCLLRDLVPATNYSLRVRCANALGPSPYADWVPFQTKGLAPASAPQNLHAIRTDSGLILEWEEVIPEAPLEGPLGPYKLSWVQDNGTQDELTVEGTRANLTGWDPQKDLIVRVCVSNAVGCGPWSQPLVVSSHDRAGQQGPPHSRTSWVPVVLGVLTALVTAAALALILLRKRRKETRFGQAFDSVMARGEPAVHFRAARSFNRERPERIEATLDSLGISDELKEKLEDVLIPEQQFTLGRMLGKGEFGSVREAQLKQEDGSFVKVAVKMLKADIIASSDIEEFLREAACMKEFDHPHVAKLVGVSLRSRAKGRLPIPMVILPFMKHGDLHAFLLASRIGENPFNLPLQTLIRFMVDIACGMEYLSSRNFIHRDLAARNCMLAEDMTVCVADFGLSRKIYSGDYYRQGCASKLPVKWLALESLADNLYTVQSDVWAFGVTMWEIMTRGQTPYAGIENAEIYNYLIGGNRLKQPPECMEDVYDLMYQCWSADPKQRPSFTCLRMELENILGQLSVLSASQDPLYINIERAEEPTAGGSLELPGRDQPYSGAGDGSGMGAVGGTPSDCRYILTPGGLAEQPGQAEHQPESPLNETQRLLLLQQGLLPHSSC

Chain of Proto-oncogene tyrosine-protein kinase ROS (Homo sapiens) (P08922 whole entry): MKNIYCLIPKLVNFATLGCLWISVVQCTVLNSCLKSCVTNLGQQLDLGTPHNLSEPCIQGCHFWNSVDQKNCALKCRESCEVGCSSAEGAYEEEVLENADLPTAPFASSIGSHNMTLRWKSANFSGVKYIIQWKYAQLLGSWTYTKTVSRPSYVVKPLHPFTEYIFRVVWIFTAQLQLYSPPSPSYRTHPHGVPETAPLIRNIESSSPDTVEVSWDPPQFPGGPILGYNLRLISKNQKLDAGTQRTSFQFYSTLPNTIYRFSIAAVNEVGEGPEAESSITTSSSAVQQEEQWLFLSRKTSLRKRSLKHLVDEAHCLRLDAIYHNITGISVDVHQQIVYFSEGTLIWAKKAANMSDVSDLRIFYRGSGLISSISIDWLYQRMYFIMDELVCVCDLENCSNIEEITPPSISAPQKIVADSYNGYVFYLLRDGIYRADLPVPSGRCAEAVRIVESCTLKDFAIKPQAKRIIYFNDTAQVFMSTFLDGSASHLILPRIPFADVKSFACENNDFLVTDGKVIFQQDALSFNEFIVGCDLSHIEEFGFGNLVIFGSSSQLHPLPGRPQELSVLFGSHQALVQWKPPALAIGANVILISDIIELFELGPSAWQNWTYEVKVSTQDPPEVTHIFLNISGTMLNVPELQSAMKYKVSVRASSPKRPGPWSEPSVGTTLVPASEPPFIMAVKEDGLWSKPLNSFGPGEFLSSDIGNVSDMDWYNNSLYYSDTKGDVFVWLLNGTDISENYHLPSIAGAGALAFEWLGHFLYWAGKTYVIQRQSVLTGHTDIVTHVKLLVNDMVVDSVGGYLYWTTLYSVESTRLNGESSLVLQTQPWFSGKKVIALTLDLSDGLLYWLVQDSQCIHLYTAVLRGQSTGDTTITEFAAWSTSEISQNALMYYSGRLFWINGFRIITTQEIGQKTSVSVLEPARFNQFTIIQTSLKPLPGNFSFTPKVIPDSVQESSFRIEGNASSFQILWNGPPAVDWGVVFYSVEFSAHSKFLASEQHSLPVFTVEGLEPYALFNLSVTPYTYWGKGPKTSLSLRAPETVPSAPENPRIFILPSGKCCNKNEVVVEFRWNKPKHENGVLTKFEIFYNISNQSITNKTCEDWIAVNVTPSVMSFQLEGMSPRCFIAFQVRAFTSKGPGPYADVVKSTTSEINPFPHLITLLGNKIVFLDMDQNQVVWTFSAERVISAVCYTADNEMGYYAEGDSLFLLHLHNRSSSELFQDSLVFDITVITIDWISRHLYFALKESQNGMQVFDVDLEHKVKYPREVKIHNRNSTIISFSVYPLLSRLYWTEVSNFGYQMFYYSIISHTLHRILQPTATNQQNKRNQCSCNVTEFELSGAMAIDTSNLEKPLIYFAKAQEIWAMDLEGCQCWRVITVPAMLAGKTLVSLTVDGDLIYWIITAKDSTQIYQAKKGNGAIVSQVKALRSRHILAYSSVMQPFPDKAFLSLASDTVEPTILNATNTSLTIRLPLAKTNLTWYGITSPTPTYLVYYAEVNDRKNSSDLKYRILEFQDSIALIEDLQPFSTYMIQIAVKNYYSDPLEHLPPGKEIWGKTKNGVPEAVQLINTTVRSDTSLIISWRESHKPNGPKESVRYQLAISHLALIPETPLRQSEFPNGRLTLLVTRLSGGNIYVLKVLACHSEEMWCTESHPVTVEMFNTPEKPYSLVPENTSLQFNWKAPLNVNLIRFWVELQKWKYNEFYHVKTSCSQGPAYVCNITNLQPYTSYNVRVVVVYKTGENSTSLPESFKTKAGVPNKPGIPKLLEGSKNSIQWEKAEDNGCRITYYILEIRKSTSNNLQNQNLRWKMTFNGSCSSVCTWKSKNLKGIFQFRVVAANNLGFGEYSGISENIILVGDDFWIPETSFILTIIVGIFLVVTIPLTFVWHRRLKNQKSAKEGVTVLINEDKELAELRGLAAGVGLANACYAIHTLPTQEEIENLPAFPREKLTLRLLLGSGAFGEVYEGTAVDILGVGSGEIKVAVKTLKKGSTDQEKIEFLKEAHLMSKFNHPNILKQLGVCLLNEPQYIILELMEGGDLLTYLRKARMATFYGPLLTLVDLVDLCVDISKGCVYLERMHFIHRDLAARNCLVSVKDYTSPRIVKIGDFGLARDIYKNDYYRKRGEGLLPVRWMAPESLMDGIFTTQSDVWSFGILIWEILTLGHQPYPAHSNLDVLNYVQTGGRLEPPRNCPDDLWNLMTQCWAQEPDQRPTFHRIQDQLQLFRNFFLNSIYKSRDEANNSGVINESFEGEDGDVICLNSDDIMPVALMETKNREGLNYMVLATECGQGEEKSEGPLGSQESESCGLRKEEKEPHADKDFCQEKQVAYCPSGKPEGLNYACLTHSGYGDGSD
Chain of Protein kinase C beta type (Homo sapiens) (P05771 2-671 limits assumed): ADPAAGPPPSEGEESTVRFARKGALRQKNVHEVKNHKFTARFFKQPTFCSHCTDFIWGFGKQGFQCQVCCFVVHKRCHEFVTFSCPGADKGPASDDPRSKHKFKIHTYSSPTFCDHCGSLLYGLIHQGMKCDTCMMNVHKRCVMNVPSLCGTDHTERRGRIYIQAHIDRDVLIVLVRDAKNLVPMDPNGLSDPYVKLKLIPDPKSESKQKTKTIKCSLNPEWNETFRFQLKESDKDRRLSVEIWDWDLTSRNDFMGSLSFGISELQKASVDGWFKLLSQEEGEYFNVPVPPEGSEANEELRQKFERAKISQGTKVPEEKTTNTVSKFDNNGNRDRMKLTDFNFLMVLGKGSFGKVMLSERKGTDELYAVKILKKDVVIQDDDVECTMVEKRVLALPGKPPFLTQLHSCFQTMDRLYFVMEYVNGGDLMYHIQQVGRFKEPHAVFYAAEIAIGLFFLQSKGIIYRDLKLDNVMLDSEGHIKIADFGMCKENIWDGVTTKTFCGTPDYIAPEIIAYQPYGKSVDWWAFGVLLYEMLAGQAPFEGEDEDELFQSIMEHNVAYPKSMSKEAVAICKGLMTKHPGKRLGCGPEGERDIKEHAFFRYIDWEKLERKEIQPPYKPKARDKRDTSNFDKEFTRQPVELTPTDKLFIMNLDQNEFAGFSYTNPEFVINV

Row | inhibition [1] | inhibition [2] | inhibition [3] | fold change (FC) [4] | fold change (FC) [5] | Compound
1 | 2% | 48% | – | – | – | CNC(=O)c1ccccc1Oc1nc(Nc2cc(OC)c(OC)c(OC)c2)ncc1Br
2 | – | – | 0% | 0 | 0 | CC(C)[C@H](NC(=O)c1cc(-c2cnn3cc(-c4ccc(OCCN5CCCCC5)cc4)cnc23)cs1)C(F)(F)F

— ChEMBL document CHEMBL5653631, “A Potent and Selective ULK1 Inhibitor Suppresses Autophagy and Sensitizes Cancer Cells to Nutrient Stress” (iScience, 2018)
